The subject of one assay is INS-1 832/13 cells. The experiment in a line: Insulin secretion by INS-1 832/13 pancreatic beta cells (static secretion, insulin by RIA, normalized to cellular protein). The format is cell-based, rodent. To be noted: for increase in insulin secretion: increase over untreated cells; for fold increase in insulin secretion: versus untreated cells. As for the experimental part: Insulin Secretion Studies. INS-1 832/13 cells (kindly provided by Dr Christopher Newgard, Duke University, NC) (18) were routinely cultured in 5% CO2/air at 37° C. in RPMI-1640 medium containing 11.1 mM glucose and supplemented with 10% FBS (Fetal Bovine Serum), 10 mM HEPES, 100 U/ml penicillin, 100 μg/ml streptomycin, 4 mM Glutamine, 1 mM sodium pyruvate, and 50 μM 2-mercaptoethanol. Cells were passed weekly after trypsin-EDTA detachment. For static secretion studies, cells were plated on 24 well plates at a density of 0.64×10^6 cells per well and grown for 24 h. The cells were then cultured for an additional 24 h in RPMI-1640 containing 4 mM glucose and the supplements described above. Cells were then incubated twice for 30 min in Krebs Ringer Bicarbonate buffer (KRBB) containing 4 mM glucose and 0.1% BSA. Cells were rapidly washed with KRBB and incubated for 60 min KRBB containing 4 or 10 mM glucose with or without the indicated anthocyanins or anthocyanidins. The medium was then removed for determining insulin release. The cells were then washed twice with PBS and dissolved in 1 M NaOH. Cellular protein concentration was then determined by Lowry assay. Anthocyanins and anthocyanidins were dissolved in DMSO to obtain desired concentrations. Final concentration of DMSO was 0.1%. The insulin secreted into the medium by the cells was determined by radioimmuno assay and normalized to total cellular protein.
Radio Immuno Assay (RIA). The Kit for RIA was purchased from LINCO Research Inc. (St Charles, Mo.), and the assay was conducted according to the manufacturer's directions. Briefly, 0.1-10 ng of insulin standards (100 μl) were added to 12×75 mm test tubes. Similarly, samples (25 μl) from the insulin secretion studies were also added to the test tubes. To this, an aliquot (75 μl) of assay buffer was added. The ^125I labeled insulin (100 μl) was then added to each test tube. […] The tubes were then centrifuged and the radioactivity was measured using a gamma counter.
Lowry protein Assay. The amount of protein in the assay wells was determined by Lowry method (Francis, J. A., et al., Helv. Chim. Acta 87 317-326 (2004)). The Lowry assay solution was prepared by combining the Lowry solution, CuSO4.5H2O (1%), and sodium tartarate (1%). Briefly, the protein sample (100 μl) and Lowry mixture (1 mL) were mixed in a test tube (12×75). The Folin-Ciolatues reagent (100 μl) was added to these tubes, mixed, and incubated for 30 min at room temperature. The optical density of resulting solutions was read at 700 nm using a UV spectrophotometer.

The conditions of assay [1]: mice; cited from earlier work.
Setting [2] is: 4 mM glucose, 50 μg/mL compound.
Setting [3] is: 10 mM glucose, 50 μg/mL compound.

These results are taken from patent publication US7737121B2, “Insulin secretion by anthocyanins and anthocyanidins” (Board of Trustees of Michigan State University, priority 2004, dated 2010).

Regarding `OCC1OC(Oc2cc3c(O)cc(O)cc3[o+]c2-c2ccc(O)cc2)C(O)C(O)C1O` (stereo not shown) [Compound 4, pelargonidin-3-galactoside], the “effect on insulin secretion, result in words” value (“effect on insulin secretion” for short) is “did not increase the insulin secretion” in the assay on INS-1 832/13 cells (setting [2]); “did not induce insulin secretion” in the assay on INS-1 832/13 cells (4 and 10 mM glucose).

For `OC[C@H]1O[C@@H](Oc2cc3c(O)cc(O)cc3[o+]c2-c2ccc(O)c(O)c2)[C@H](O)[C@@H](O)[C@H]1O` [Compound 3, cyanidin-3-galactoside], in the assay with INS-1 832/13 cells (setting [2]), the “effect on insulin secretion” value is reported as “did not increase the insulin secretion”. Moreover, in the assay on INS-1 832/13 cells (setting [3]), the “increase in insulin secretion” value is recorded as 17 ng/mg of protein and the “fold increase in insulin secretion” value stood at 1.2 fold. For the same molecule, in the assay on INS-1 832/13 cells (4 and 10 mM glucose), the “effect on insulin secretion” value is “significant increase in insulin secretion”.

`OC[C@H]1O[C@@H](Oc2cc3c(O)cc(O)cc3[o+]c2-c2ccc(O)c(O)c2)[C@H](O)[C@@H](O)[C@@H]1O` [Compound 1, cyanidin-3-glucoside]: the “high fat diet induced obesity” value in assay [1] is listed as “reduced”. For the same molecule, the “insulin secreted (dose dependent assay)” value with INS-1 832/13 cells (4 mM glucose, 5 μg/mL compound, untreated cells 33) is given as 46 ng of insulin per mg protein. In addition, the “effect on insulin secretion” value in the assay on INS-1 832/13 cells (setting [2]) is reported as “less active than delphinidin-3-glucoside”; in the assay on INS-1 832/13 cells (setting [3]) it was “more active”; in the assay on INS-1 832/13 cells (4 and 10 mM glucose) it was “most effective insulin secretagogues”. Further, in the assay with INS-1 832/13 cells (4 mM glucose, 50 μg/mL compound, 60 min), the “increase in insulin secretion” value is recorded as 9 ng/mg of protein. The “fold increase in insulin secretion” value in the assay with INS-1 832/13 cells (setting [2]) is listed as 1.3 fold. The “insulin secretion (dose dependent assay), result in words” value with INS-1 832/13 cells (4 mM glucose, 10, 50, 100 and 250 μg/mL compound) is “no significant difference”.

Consider `OC[C@H]1O[C@@H](Oc2cc3c(O)cc(O)cc3[o+]c2-c2cc(O)c(O)c(O)c2)[C@H](O)[C@@H](O)[C@@H]1O` [Compound 2, delphinidin-3-glucoside], for which the insulin secreted with INS-1 832/13 cells (4 mM glucose, 50 μg/mL compound, total secreted by treated cells) is 49 ng/mg of protein. Further, the figures for the “fold increase in insulin secretion” value with INS-1 832/13 cells (setting [2]) and in the assay with INS-1 832/13 cells (setting [3]) were 1.8 fold and 1.4 fold, respectively. The “effect on insulin secretion” value with INS-1 832/13 cells (4 and 10 mM glucose) was “most effective insulin secretagogues”; in the assay with INS-1 832/13 cells (4 and 10 mM glucose, listed as delphinidin-3-glucoside), “significantly induced the insulin secretion”.
